In patent US20160199320A1, “Ophthalmic Treatments” (Optosolve Research & Development Limited, priority 2011, published 2016):

Assays:
undamaged eye = details: topically applied to an undamaged eye; cited from earlier work
eye [1] = test: pilocarpine drops for constriction of the pupil, with or without tramadol drops; type: in vivo
Protocol: In a first example, an eye was treated with pilocarpine drops to cause constriction of the pupil (in this particular example, as part of an ophthalmic diagnostic procedure, although pilocarpine is also be used therapeutically). Such drops can cause significant discomfort and excessive tear formation, possibly washing pilocarpine out of the eye before it could take effect. […] This implies that the tramadol may well be improving the absorption of other drugs.

eye [2] = test: ciclosporin composition with added tramadol, post-operative treatment following a corneal transplant; type: in vivo; details: addition of 0.5% w/v tramadol to the composition
Source text: In a second example, a composition containing ciclosporin would normally be administered to the eye in post-operative treatment following a corneal transplant, to avoid transplant rejection. However, this would lead to significant additional levels of discomfort in the eye.

eye [3] = test: eye-drop formulation with tramadol in the left eye of a healthy subject, sensation in the eye; type: in vivo, human; details: 0.5% w/v tramadol eye-drop
Protocol: In a third example, a conventional ophthalmic eye-drop formulation was made up, but with the addition of 0.5% w/v tramadol. This formulation was administered to the left eye of a healthy subject. […] Sensation in the right eye remained normal.

eye [4] = test: fourth example: patient suffering from dry-eye, tramadol eye-drops, artificial tears, or combination; type: in vivo, human; details: topical
Source text: In a fourth example, administration of the tramadol-containing eye-drop formulation of the third example to a patient suffering from “dry-eye” reduced the resultant discomfort as expected. […] However, the discomfort remained, which for many patients would lead to actions such as rubbing the affected eye, counteracting much of the improvement.

eye [5] = test: sixth example: tramadol eye-drops in a painful infection of the eye; type: in vivo, human
Source text: In a sixth example, an infection of the subject's eye required treatment with antibiotics. However, the subject was unable to open the respective eyelid due to the consequent pain.

eye [6] = test: seventh example: tramadol eye-drops in allergic eye disease; type: in vivo, human
Source text: In a seventh example, a person presented with an allergic eye disease, resulting in significant prolonged itchiness.

eye [7] = test: eighth example: tramadol eye-drops in dry eyes with unstable tear films, tear osmolarity and pain; type: in vivo, human; details: for pain: dry eye
Source text: In an eighth example, a person presented with dry eyes and unstable tear films, typical symptoms of “dry eye”. The patient's tear osmolarity improved, after use of an eye-drop containing 0.5% w/v tramadol in one eye, from 312 milliOsmoles before instillation of the eye drop to 299 milliOsmoles one hour after instillation.

eye [8] = test: ninth example: tramadol eye-drops in blepharitis with reduced tear break-up time; type: in vivo, human; details: eye-drops containing 1.0% w/v tramadol
Source text: In a ninth example, a middle-aged person with blepharitis and no corneal staining but a reduced tear break-up time was given eye-drops containing 1.0% w/v tramadol.

[9] = drops containing tramadol administered before or in conjunction with the pilocarpine drops
[10] = tramadol 0.5% w/v where present
[11] = eye-drop formulation comprising 0.5% w/v tramadol
[12] = middle-aged person with blepharitis

CN1CC[C@]23c4c5ccc(O)c4O[C@H]2[C@@H](O)C=C[C@H]3[C@H]1C5 [morphine]
analgesic effect (undamaged eye): very little or no analgesic effect

CC[C@@H]1C(=O)OC[C@@H]1Cc1cncn1C [pilocarpine]
effectiveness in constriction of the pupil (eye [1]; 0.5% w/v pilocarpine administered promptly after or in conjunction with tramadol): as effective as 1% w/v pilocarpine administered without tramadol present

COc1cccc(C2(O)CCCCC2CN(C)C)c1 (centres unmarked) [tramadol]
discomfort caused by pilocarpine drops (eye [1]; [9]): greatly reduced | tear formation caused by pilocarpine drops (eye [1]; [9]): greatly reduced | effectiveness of the ciclosporin (eye [2]): improve | discomfort in the eye from ciclosporin composition (eye [2]; post corneal transplant): significantly reduce | duration of numbing effect (eye [3]): at least 110 minutes | side-effects (eye [3]): No side-effects were noted | time to noticeably reduced sensation in the eye after instillation (eye [3]): ≤ 3 min | blinking (eye [4]; tramadol 0.5% w/v): reduction in blinking | discomfort / pain (eye [4]; [10]): reduced | dryness / lubrication of the eye (eye [4]; [10]): dryness remained | physical signs (symptoms and signs) (eye [4]; [10]): did not improve | resolution of the infection (eye [5]; 0.5% w/v tramadol followed by antibiotics): more rapidly than would have been expected | discomfort (eye [5]; [11]): rapidly reduced | opening of the eyelid (eye [5]; [11]): permitting opening of the eyelid | vision in the treated eye (eye [5]; [11]): allowed reasonable vision | associated redness (eye [6]; allergic eye disease, eye-drop containing 0.5% w/v tramadol, versus saline drops alone): improved with time faster than for the conventional treatment with saline drops alone | itchiness (eye [6]; allergic eye disease, person, eye-drop containing 0.5% w/v tramadol): improved within a few minutes | results in allergic eye disease (itchiness, redness) (eye [6]; eye-drop containing 1.0% w/v tramadol, compared with 0.5% w/v): even more rapid and effective results | pain (eye [7]; eye-drop containing 0.5% w/v tramadol): reduced | pain (eye [7]; eye-drop containing 1.0% w/v tramadol): reduced the patient's pain further | tear osmolarity (eye [7]; one hour after instillation of eye-drop containing 0.5% w/v tramadol, 312 milliOsmoles before instillation, person with dry eye): 299 milliOsmoles | blepharitis (eye [8]; middle-aged male): improved | irritable symptoms (eye [8]; [12]): improvement | tear break-up time (eye [8]; [12]): improved, and so did the tear break-up time
